The values below come from article PMC12748266, “Testing antimicrobial peptides inhibiting protein synthesis in living E. coli and K. pneumoniae using bio-orthogonal non-canonical amino-acid tagging” (Frontiers in Microbiology, 2025).

For assay [1], the system named is K. pneumoniae ATCC 700603. Kind of assay: microbe, parasite or virus in culture. The following applies: for MIC: 18 h, 37 °C, mode of at least three experiments; for MIC for K. pneumoniae relative to E. coli: supplemented M9, 5 × 10^6 cells/mL. The format is cell-based, Klebsiella pneumoniae. The procedure: […] […] Serially two-fold dilution (1:1) were performed across subsequent wells to a final volume of 50 μL. […] […] The plates were sealed with parafilm to minimize evaporation and incubated at 37 °C for 18 h. The minimum inhibitory concentration (MIC) was visually determined as the lowest peptide concentration in a well with no visible bacterial growth. Data are reported as the mode of at least three independent experiments.

The subject of assay [2] is E. coli ATCC 25922. Kind of assay: BONCAT protein synthesis inhibition after antimicrobial washout. It is filed as cell-based, Escherichia coli. The settings on record: 10 or 30 min at MIC (time not given), then 30 min HPG. Here is the method:
We used a modified protocol from [Lindivat et al. (2020)]. Briefly, overnight cultures of E. coli ATCC 25922 or K. pneumoniae ATCC 700603, prepared as described above, were diluted to a final concentration of 5×10^6 CFU/mL and allowed to adjust for 30 min at 37 °C. The culture was then incubated at 37 °C in the dark for 10 or 30 min in the presence or absence of each peptide or antibiotic at various concentrations, with a final volume of 1 mL. At this point, only in certain specified experimental assays, the compounds were removed from the supernatant by centrifugation (16,000 × g for 5 min) and bacteria were washed and resuspended in fresh supplemented M9 medium. […] If not analysed immediately, the fixed samples were stored at 4 °C prior to performing the click chemistry reaction. […]
An overnight culture of E. coli ATCC 25922, or of K. pneumoniae ATCC 700603, prepared as described above, was diluted to a final concentration of 5 × 10^6 CFU/mL and allowed to adjust for 30 min at 37 °C under shaking. Membrane permeabilization of bacteria was then assessed by incubating bacteria at 37 °C, in a final volume of 1 mL, with varying concentrations of each peptide or antibiotic used for the BONCAT assay. […] The fluorescence of untreated cells was used to establish the gating for positive PI-stained cells. […]

Values after ≈ are worked out from the molar mass of the structure shown. No end group written: not given here.

In the case of `CO[C@H]1/C=C/O[C@@]2(C)Oc3c(C)c(O)c4c(O)c(c(/C=N/N5CCN(C)CC5)c(O)c4c3C2=O)NC(=O)/C(C)=C\C=C\[C@H](C)[C@H](O)[C@@H](C)[C@@H](O)[C@@H](C)[C@H](OC(C)=O)[C@@H]1C` [RIF, Rifampicin], the MIC in assay [1] (Klebsiella pneumoniae, ATCC700603, supplemented M9 medium, 5 × 10^6 CFU/mL, visual) turned out to be 16 µM (≈ 13.2 µg/mL). The “Reduction in fluorescence after washout” value in assay [2] is “over 20%”.
Regarding RRIRPRPPRLPRPRPR [Bac7(1–16)], the MIC in assay [1] (Mueller Hinton, 2,5x10^5 CFU/mL) came to 4 µM; in assay [1] (supplemented M9 medium, 5 × 10^6 CFU/mL, visual), 4 µM. The “MIC for K. pneumoniae relative to E. coli” value in assay [1] is 4 fold.
Regarding `O=C(N[C@H](CO)[C@H](O)c1ccc([N+](=O)[O-])cc1)C(Cl)Cl` [CHL, Chloramphenicol], the “Reduction in fluorescence after washout” value in assay [2] is “lost most of its inhibitory effects once removed from the medium”.
For “RRIRPRPPRLPRPRPRPLPFPRPGPRPIPRPLPFP [Bac7(1–35)]”, the “MIC for K. pneumoniae relative to E. coli” value in assay [1] was found to be 4 fold.
